Measured values reported in the supplement of paper PMC4862054.

Key:
MDA-MB-436 [1] = experiment: normalised viability (% of control), CellTiter-Blue; higher = more viable cells (about 100 = DMSO control); details: incubation time: 72 h
Procedure, shortened: (§1)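 Each value is normalised viability at a single listed concentration of the series. Breast cancer cell lines in 384-well plates were incubated 72 h with compound and read by CellTiter-Blue fluorescence at 560/590 nm, with vehicle set to 100 and a positive kill control to 0 on every plate.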

HCC1599 [2] = experiment: as above; details: incubation time: 72 h
Procedure, shortened: as §1

MDA-MB-231 [3] = experiment: as above; details: incubation time: 72 h
Procedure, shortened: as §1

HCC1937 [4] = experiment: as above; details: incubation time: 72 h
Procedure, shortened: as §1

CAL-148 [5] = experiment: as above; details: incubation time: 72 h
Procedure, shortened: as §1

MFM-223 [6] = details: 72 h
Procedure, shortened: (§2)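 Viability of breast cancer cell lines was measured with CellTiter-Blue after 72 h of incubation on compound-loaded 384-well plates. Cells were seeded in 20 µl onto compound dissolved in 5 µl medium, and 2.5 µl reagent was added for 2 h at 37 °C before reading at 560/590 nm. EC50 was fitted from percent-inhibition dose-response data censored at the highest concentration, normalised per plate to vehicle and a positive kill control, with zero drug sensitivity score rows dropped.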

BT-474 [7] = details: 72 h
Procedure, shortened: as §2

MDA-MB-231 [8] = details: 72 h
Procedure, shortened: as §2

MDA-MB-468 [9] = details: 72 h
Procedure, shortened: as §2

MDA-MB-453 [10] = details: 72 h
Procedure, shortened: as §2

DU-4475 [11] = details: 72 h
Procedure, shortened: as §2

CAL-85-1 [12] = details: 72 h
Procedure, shortened: as §2

HDQ-P1 [13] = details: 72 h
Procedure, shortened: as §2

CAL-85-1 [14] = details: 72 h; remark: listed apart in the source
Procedure: (§3)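 Drug sensitivity and resistance testing (DSRT) of breast cancer cell lines in 384-well plates, 5 concentrations in 10-fold dilutions over a compound-specific 10,000-fold range. After 72 h, cytotoxicity was read by CellTox Green fluorescence and viability by CellTiter-Glo luminescence (multiplexed), normalised to DMSO and benzethonium chloride controls. EC50 is the inflection point of the fitted dose-response curve (bottom asymptote free, so it can be relative for partial curves) and is censored at the highest tested concentration. Rows with DSS 0 (no meaningful response) were excluded.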

BT-549 [15] = details: 72 h
Procedure, shortened: (§4)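 Breast cancer cell lines (20 µl suspension) were seeded into 384-well plates holding compound at 5 concentrations in 10-fold steps over a compound-specific 10,000-fold range, then incubated 72 h. Cell death was read first by CellTox Green fluorescence (485/520 nm), then viability by CellTiter-Glo luminescence after 10 min at room temperature. Each plate was normalised to 0.1 % DMSO and a positive kill control. EC50 was fitted from the dose-response curves and censored at the top concentration.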

MDA-MB-453 [16] = details: 72 h; remark: listed apart in the source
Procedure, shortened: as §4

SK-BR-3 = details: 72 h
Procedure, shortened: as §4

CAL-85-1 [17] = details: 72 h; remark: listed apart in the source
Procedure, shortened: as §4

CAL-148 [18] = details: 72 h
Procedure, shortened: as §4

MCF-10A [19] = details: 72 h
Procedure, shortened: as §4

HDQ-P1 [20] = details: 72 h; remark: listed apart in the source
Procedure, shortened: as §4

Hs578T [21] = details: 72 h
Procedure, shortened: as §2

MFM-223 [22] = details: 72 h; remark: listed apart in the source
Procedure: as §3

CAL-51 [23] = details: 72 h
Procedure: as §3

BT-549 [24] = details: 72 h; remark: listed apart in the source
Procedure: as §3

BT-474 [25] = details: 72 h; remark: listed apart in the source
Procedure: as §3

MDA-MB-231 [26] = details: 72 h; remark: listed apart in the source
Procedure: as §3

Hs578T [27] = details: 72 h; remark: listed apart in the source
Procedure: as §3

MCF-10A [28] = details: 72 h; remark: listed apart in the source
Procedure: as §3

HDQ-P1 [29] = details: 72 h; remark: listed apart in the source
Procedure: as §3

MFM-223 [30] = details: 72 h; remark: listed apart in the source
Procedure, shortened: as §4

CAL-51 [31] = details: 72 h; remark: listed apart in the source
Procedure, shortened: as §4

MDA-MB-436 [32] = details: 72 h
Procedure, shortened: as §4

BT-474 [33] = details: 72 h; remark: listed apart in the source
Procedure, shortened: as §4

DU-4475 [34] = details: 72 h; remark: listed apart in the source
Procedure, shortened: as §4

HCC1599 [35] = details: 72 h
Procedure, shortened: as §4

MDA-MB-231 [36] = details: 72 h; remark: listed apart in the source
Procedure, shortened: as §4

HCC1143 [37] = details: 72 h
Procedure, shortened: as §4

HCC1937 [38] = details: 72 h
Procedure, shortened: as §4

Hs578T [39] = details: 72 h; remark: listed apart in the source
Procedure, shortened: as §4

HCC1599 [40] = details: 72 h; remark: listed apart in the source
Procedure, shortened: as §2

HCC1143 [41] = details: 72 h; remark: listed apart in the source
Procedure, shortened: as §2

MDA-MB-468 [42] = details: 72 h; remark: listed apart in the source
Procedure: as §3

CAL-148 [43] = details: 72 h; remark: listed apart in the source
Procedure: as §3

CN1CCC(COc2cnc(-c3cccc(Cn4nc(-c5cccc(C#N)c5)ccc4=O)c3)nc2)CC1
normalised viability [%]
Details	3 nM	10 nM	30 nM	100 nM	1000 nM	10000 nM
CAL-148 [5]	85.8	–	83.2	94.2	–	–
HCC1599 [2]	–	108	–	–	120	71.9
HCC1937 [4]	–	79.1	–	–	96.1	10.6
MDA-MB-231 [3]	–	79	–	–	81.3	1.93
MDA-MB-436 [1]	–	82.3	–	–	92.3	11.6

Details	EC50, CellTiter-Blue viability [nM]
BT-474 [7]	4450
CAL-85-1 [12]	5150
DU-4475 [11]	5890
HDQ-P1 [13]	4970
MDA-MB-231 [8]	2060
MDA-MB-453 [10]	3640
MDA-MB-468 [9]	3040
MFM-223 [6]	6270

CN(C)C/C=C/C(=O)Nc1cc2c(Nc3ccc(F)c(Cl)c3)ncnc2cc1O[C@H]1CCOC1 [Afatinib]
normalised viability [%]
Details	3 nM	10 nM	30 nM	100 nM	1000 nM	10000 nM
CAL-148 [5]	83.2	–	72.9	72.5	–	–
HCC1599 [2]	–	97.4	–	–	77.6	79.5
HCC1937 [4]	–	83.2	–	–	67.5	13.9
MDA-MB-231 [3]	–	89.1	–	–	74.2	7.48
MDA-MB-436 [1]	–	90.8	–	–	103	17.3

Details	EC50, CellTiter-Blue viability [nM]	EC50, CellTiter-Glo [nM]	EC50, CellTox Green [nM]
BT-474 [7]	20.9	–	–
BT-549 [15]	–	> 1000	–
CAL-85-1 [12]	147	–	–
CAL-85-1 [14]	–	–	19.7
CAL-85-1 [17]	–	35.2	–
CAL-148 [18]	–	24.1	–
HDQ-P1 [13]	398	–	–
HDQ-P1 [20]	–	9.48	–
Hs578T [21]	4260	–	–
MCF-10A [19]	–	6.58	–
MDA-MB-231 [8]	2010	–	–
MDA-MB-453 [10]	45.7	–	–
MDA-MB-453 [16]	–	54.7	–
MDA-MB-468 [9]	1160	–	–
MFM-223 [6]	3740	–	–
SK-BR-3	–	10.7	–

CN1CC[C@H](c2c(O)cc(O)c3c(=O)cc(-c4ccccc4Cl)oc23)[C@H](O)C1 [Alvocidib]
normalised viability [%]
Details	3 nM	10 nM	30 nM	100 nM	1000 nM	10000 nM
CAL-148 [5]	86	–	89.6	70.8	–	–
HCC1599 [2]	–	124	–	–	19.6	21.9
HCC1937 [4]	–	79.5	–	–	15	18.7
MDA-MB-231 [3]	–	88.2	–	–	7.07	6.37
MDA-MB-436 [1]	–	91	–	–	14.9	15.8

Details	EC50, CellTiter-Blue viability [nM]	EC50, CellTiter-Glo [nM]	EC50, CellTox Green [nM]
BT-474 [7]	278	–	–
BT-474 [25]	–	–	> 10000
BT-474 [33]	–	183	–
BT-549 [15]	–	294	–
BT-549 [24]	–	–	1010
CAL-51 [23]	–	–	806
CAL-51 [31]	–	167	–
CAL-85-1 [12]	153	–	–
CAL-85-1 [14]	–	–	473
CAL-85-1 [17]	–	372	–
CAL-148 [18]	–	243	–
DU-4475 [11]	141	–	–
DU-4475 [34]	–	282	–
HCC1143 [37]	–	359	–
HCC1143 [41]	127	–	–
HCC1599 [35]	–	417	–
HCC1599 [40]	165	–	–
HCC1937 [38]	–	357	–
HDQ-P1 [13]	163	–	–
HDQ-P1 [20]	–	183	–
HDQ-P1 [29]	–	–	167
Hs578T [21]	93.6	–	–
Hs578T [27]	–	–	1790
Hs578T [39]	–	376	–
MCF-10A [19]	–	368	–
MCF-10A [28]	–	–	420
MDA-MB-231 [8]	190	–	–
MDA-MB-231 [26]	–	–	135
MDA-MB-231 [36]	–	242	–
MDA-MB-436 [32]	–	143	–
MDA-MB-453 [10]	165	–	–
MDA-MB-453 [16]	–	548	–
MDA-MB-468 [9]	278	–	–
MFM-223 [6]	174	–	–
MFM-223 [22]	–	–	558
MFM-223 [30]	–	335	–
SK-BR-3	–	218	–

Nc1nc(Cl)nc2c1ncn2[C@H]1C[C@H](O)[C@@H](CO)O1 [Cladribine]
normalised viability [%]
Details	0.3 nM	1 nM	3 nM	10 nM	100 nM	1000 nM
CAL-148 [5]	91.9	–	109	93	–	–
HCC1599 [2]	–	97.8	–	–	83	91.7
HCC1937 [4]	–	91.8	–	–	56.8	43.4
MDA-MB-231 [3]	–	101	–	–	67	71.9
MDA-MB-436 [1]	–	101	–	–	90	65.8

Details	EC50, CellTiter-Blue viability [nM]	EC50, CellTiter-Glo [nM]	EC50, CellTox Green [nM]
BT-549 [15]	–	125	–
DU-4475 [11]	879	–	–
HCC1143 [41]	> 1000	–	–
MDA-MB-231 [8]	9.12	–	–
MDA-MB-231 [26]	–	–	> 1000
MDA-MB-468 [42]	–	–	2.5

Nc1ccn([C@@H]2O[C@H](CO)[C@@H](O)[C@@H]2O)c(=O)n1 [Cytarabine]
normalised viability [%]
Details	3 nM	10 nM	30 nM	100 nM	1000 nM	10000 nM
CAL-148 [5]	95.9	–	68.9	47.9	–	–
HCC1599 [2]	–	109	–	–	78.7	77.4
HCC1937 [4]	–	124	–	–	41.6	42.6
MDA-MB-231 [3]	–	100	–	–	67	61.7
MDA-MB-436 [1]	–	98.2	–	–	74.3	74.1

Details	EC50, CellTiter-Blue viability [nM]	EC50, CellTiter-Glo [nM]	EC50, CellTox Green [nM]
BT-474 [33]	–	> 10000	–
BT-549 [15]	–	305	–
CAL-51 [23]	–	–	315
CAL-51 [31]	–	544	–
CAL-85-1 [12]	1190	–	–
CAL-148 [18]	–	200	–
CAL-148 [43]	–	–	61.6
DU-4475 [11]	450	–	–
DU-4475 [34]	–	339	–
HCC1143 [37]	–	1270	–
HCC1143 [41]	213	–	–
HCC1599 [40]	556	–	–
HDQ-P1 [20]	–	2890	–
Hs578T [21]	17.3	–	–
Hs578T [39]	–	462	–
MDA-MB-231 [8]	183	–	–
MDA-MB-436 [32]	–	364	–
MDA-MB-453 [10]	396	–	–
MDA-MB-468 [9]	483	–	–
SK-BR-3	–	156	–
